Reference: PubChem BioAssay (NCI)
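Step 1: Grow cells in 96-well plates. Step 2: Expose to compound for 48 hours at 5 concentrations. Step 3: Interpolate endpoints linearly; if unreached, use highest concentration. The concentration for 50% growth inhibition is given as GI50. TGI: concentration producing complete growth inhibition.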

Assays:
Test in all cases: NCI anticancer screen, dose series, 48 h
786-0 renal = system: 786-0 renal
A498 renal = system: A498 renal
A549 NSCLC = system: A549 NSCLC
ACHN renal = system: ACHN renal
BT-549 breast = system: BT-549 breast
CAKI-1 renal = system: CAKI-1 renal
CCRF-CEM leukemia = system: CCRF-CEM leukemia
COLO 205 colon = system: COLO 205 colon
DU-145 prostate = system: DU-145 prostate
HCC-2998 colon = system: HCC-2998 colon
HCT-116 colon = system: HCT-116 colon
HCT-15 colon = system: HCT-15 colon
HL-60(TB) leukemia = system: HL-60(TB) leukemia
HOP-62 NSCLC = system: HOP-62 NSCLC
HOP-92 NSCLC = system: HOP-92 NSCLC
HS 578T breast = system: HS 578T breast
HT29 colon = system: HT29 colon
IGROV1 ovarian = system: IGROV1 ovarian
K-562 leukemia = system: K-562 leukemia
KM12 colon = system: KM12 colon
LOX IMVI melanoma = system: LOX IMVI melanoma
M14 melanoma = system: M14 melanoma
MCF7 breast = system: MCF7 breast
MDA-MB-231 breast = system: MDA-MB-231 breast
MDA-MB-435 = system: MDA-MB-435
MOLT-4 leukemia = system: MOLT-4 leukemia
NCI-H226 lung = system: NCI-H226 lung
NCI-H23 lung = system: NCI-H23 lung
NCI-H460 lung = system: NCI-H460 lung
NCI-H522 lung = system: NCI-H522 lung
NCI/ADR-RES ovarian = system: NCI/ADR-RES ovarian
OVCAR-3 ovarian = system: OVCAR-3 ovarian
OVCAR-4 ovarian = system: OVCAR-4 ovarian
OVCAR-5 ovarian = system: OVCAR-5 ovarian
OVCAR-8 ovarian = system: OVCAR-8 ovarian
PC-3 prostate = system: PC-3 prostate
RPMI-8226 leukemia = system: RPMI-8226 leukemia
RXF 393 renal = system: RXF 393 renal
SF-268 CNS = system: SF-268 CNS
SF-539 CNS = system: SF-539 CNS
SK-MEL-2 melanoma = system: SK-MEL-2 melanoma
SK-MEL-28 melanoma = system: SK-MEL-28 melanoma
SK-MEL-5 melanoma = system: SK-MEL-5 melanoma
SK-OV-3 ovarian = system: SK-OV-3 ovarian
SN12C renal = system: SN12C renal
SNB-75 CNS = system: SNB-75 CNS
SR leukemia = system: SR leukemia
SW-620 colon = system: SW-620 colon
T-47D breast = system: T-47D breast
TK-10 renal = system: TK-10 renal
U251 CNS = system: U251 CNS
UACC-257 melanoma = system: UACC-257 melanoma
UACC-62 melanoma = system: UACC-62 melanoma
UO-31 renal = system: UO-31 renal

For `CN1CCN(c2nc(-c3ccncc3)nc3sc4c(c23)CCCCCC4)CC1`, the GI50 (786-0 renal) was 4.77 µM, the TGI (786-0 renal) was 20.2 µM and the GI50 (A498 renal) was 1.06 µM. The TGI (A498 renal) was 7.56 µM, the GI50 (A549 NSCLC) was 11.4 µM and the TGI (A549 NSCLC) was 25.3 µM. It also gave a GI50 (ACHN renal) of 7.99 µM, a TGI (ACHN renal) of 20.5 µM and a GI50 (BT-549 breast) of 6.35 µM. The TGI (BT-549 breast) was 19.9 µM, the GI50 (CAKI-1 renal) was 3.44 µM and the TGI (CAKI-1 renal) was 19.4 µM. It also gave a GI50 (CCRF-CEM leukemia) of 8.05 µM, a TGI (CCRF-CEM leukemia) of 28.8 µM and a GI50 (COLO 205 colon) of 4.94 µM. It also gave a TGI (COLO 205 colon) of 17.2 µM, a GI50 (DU-145 prostate) of 12.7 µM and a TGI (DU-145 prostate) of 26.4 µM. It also gave a GI50 (HCC-2998 colon) of 3.91 µM, a TGI (HCC-2998 colon) of 13.2 µM and a GI50 (HCT-116 colon) of 5.13 µM. For the same compound, the TGI (HCT-116 colon) was 17.7 µM, the GI50 (HCT-15 colon) was 11.3 µM and the TGI (HCT-15 colon) was 24.3 µM. It also gave a GI50 (HL-60(TB) leukemia) of 12.6 µM, a TGI (HL-60(TB) leukemia) of 29.8 µM and a GI50 (HOP-62 NSCLC) of 6.5 µM. It also gave a TGI (HOP-62 NSCLC) of 19.4 µM, a GI50 (HOP-92 NSCLC) of 0.654 µM and a TGI (HOP-92 NSCLC) of 5.32 µM. The GI50 (HS 578T breast) was 2.3 µM, the TGI (HS 578T breast) was 13.9 µM and the GI50 (HT29 colon) was 4.75 µM. It also gave a TGI (HT29 colon) of 17.3 µM, a GI50 (IGROV1 ovarian) of 8.16 µM and a TGI (IGROV1 ovarian) of 22 µM. It also gave a GI50 (K-562 leukemia) of 3.53 µM, a TGI (K-562 leukemia) of 16.3 µM and a GI50 (KM12 colon) of 13.4 µM. It also gave a TGI (KM12 colon) of 28 µM, a GI50 (LOX IMVI melanoma) of 8.23 µM and a TGI (LOX IMVI melanoma) of 20.5 µM. The GI50 (M14 melanoma) was 5.32 µM, the TGI (M14 melanoma) was 18 µM and the GI50 (MCF7 breast) was 6.61 µM. For the same compound, the TGI (MCF7 breast) was 20.4 µM, the GI50 (MDA-MB-231 breast) was 4.26 µM and the TGI (MDA-MB-231 breast) was 18.7 µM. The GI50 (MDA-MB-435) was 11.8 µM, the TGI (MDA-MB-435) was 26 µM and the GI50 (MOLT-4 leukemia) was 3.8 µM. The TGI (MOLT-4 leukemia) was 16.2 µM, the GI50 (NCI-H226 lung) was 10.4 µM and the TGI (NCI-H226 lung) was 34.2 µM. The GI50 (NCI-H23 lung) was 11.4 µM, the TGI (NCI-H23 lung) was 24.3 µM and the GI50 (NCI-H460 lung) was 13.5 µM. For the same compound, the TGI (NCI-H460 lung) was 29 µM, the GI50 (NCI-H522 lung) was 12 µM and the TGI (NCI-H522 lung) was 24.6 µM. It also gave a GI50 (NCI/ADR-RES ovarian) of 8.17 µM, a TGI (NCI/ADR-RES ovarian) of 24.5 µM and a GI50 (OVCAR-3 ovarian) of 13.5 µM. The TGI (OVCAR-3 ovarian) was 27 µM, the GI50 (OVCAR-4 ovarian) was 12.7 µM and the TGI (OVCAR-4 ovarian) was 28 µM. For the same compound, the GI50 (OVCAR-5 ovarian) was 10.8 µM, the TGI (OVCAR-5 ovarian) was 22.9 µM and the GI50 (OVCAR-8 ovarian) was 12.2 µM. It also gave a TGI (OVCAR-8 ovarian) of 26.3 µM, a GI50 (PC-3 prostate) of 4.71 µM and a TGI (PC-3 prostate) of 18.2 µM. It also gave a GI50 (RPMI-8226 leukemia) of 8.39 µM, a TGI (RPMI-8226 leukemia) of 26.9 µM and a GI50 (RXF 393 renal) of 4.08 µM. For the same compound, the TGI (RXF 393 renal) was 19 µM, the GI50 (SF-268 CNS) was 5.34 µM and the TGI (SF-268 CNS) was 20.7 µM. The GI50 (SF-539 CNS) was 8.32 µM, the TGI (SF-539 CNS) was 21 µM and the GI50 (SK-MEL-2 melanoma) was 14.6 µM. For the same compound, the TGI (SK-MEL-2 melanoma) was 28.2 µM, the GI50 (SK-MEL-28 melanoma) was 12.5 µM and the TGI (SK-MEL-28 melanoma) was 25.1 µM. The GI50 (SK-MEL-5 melanoma) was 7.94 µM, the TGI (SK-MEL-5 melanoma) was 20.5 µM and the GI50 (SK-OV-3 ovarian) was 12.2 µM. It also gave a TGI (SK-OV-3 ovarian) of 24.6 µM, a GI50 (SN12C renal) of 5.64 µM and a TGI (SN12C renal) of 22 µM. For the same compound, the GI50 (SNB-75 CNS) was 1.4 µM, the TGI (SNB-75 CNS) was 7.75 µM and the GI50 (SR leukemia) was 2.81 µM. It also gave a TGI (SR leukemia) of 12.2 µM, a GI50 (SW-620 colon) of 11.9 µM and a TGI (SW-620 colon) of 25.6 µM. The GI50 (T-47D breast) was 13.5 µM, the TGI (T-47D breast) was 29.3 µM and the GI50 (TK-10 renal) was 6.71 µM. It also gave a TGI (TK-10 renal) of 20.5 µM, a GI50 (U251 CNS) of 9.29 µM and a TGI (U251 CNS) of 25 µM. It also gave a GI50 (UACC-257 melanoma) of 10.6 µM, a TGI (UACC-257 melanoma) of 23 µM and a GI50 (UACC-62 melanoma) of 11 µM. It also gave a TGI (UACC-62 melanoma) of 24 µM, a GI50 (UO-31 renal) of 1.57 µM and a TGI (UO-31 renal) of 8.85 µM.
